Results published in patent publication US11279761B2, “Anti-PD-L1 combinations for treating tumors” (BIRDIE BIOPHARMACEUTICALS, INC., priority 2014, dated 2022).

Legend:
C26 tumor = test: Combinational efficacy of anti-PD-L1 and R848 in PD-L1 expressed C26 tumor model (Study No. R-BDB001-0008); type: in vivo; details: C26 s.c. in BALB/c mice; single agent, 3-week period
Protocol: The objective of this study was to determine the single or combinational efficacy of R848 and anti-PD-L1 monoclonal antibody in the C26 tumor model in immune-competent mouse. C26 cells were inoculated by subcutaneous injection into the right flank of BALB/c mice on Day 0. Tumors were monitored until they reached a mean tumor volume of between 60 and 100 mm3, inclusive. Mice were administered, over a 3-week period, 10 mg/kg IV (via tail vein) of rat anti-mouse PD-L1 monoclonal antibody alone twice weekly, 0.08 mg/kg of R848 alone once weekly, or a combination of anti-PD-L1 antibody and R848.
The differences in tumor inhibition by the combination treatment compared to that of each component is shown graphically (FIG. 6)) and was highly significant (p=0.0029, anti-PDL1 and R848 combined versus R848 alone; p=0.0074, anti-PDL1 and R848 combined versus anti-PDL1 alone).

[1] = system: mouse colon adenocarcinoma 26 (C26) tumor; test: Combinational efficacy of R848 and anti-PD-1 antibody in PD-L1 expressed C26 tumor model; type: in vivo; details: C26 s.c. in BALB/c mice; single agent, three-week period
Protocol: The objective of this study was to determine the single or combinational efficacy of R848 and anti-PD-1 monoclonal antibody in the mouse colon adenocarcinoma 26 (C26) tumor model in immune-competent mouse. C26 cells were inoculated by subcutaneous injection into the right flank of BALB/c mice on Day 0. Tumors were monitored until they reached a mean tumor volume of between 60 and 100 mm3. Mice were then administered over a three-week period 10 mg/kg IV (via tail vein) of rat anti-mouse PD-1 monoclonal antibody alone twice weekly, 0.08 mg/kg of R848 alone once weekly, or a combination of anti-PD-1 antibody and R848. Tumor volumes were recorded twice weekly over the course of the study and the mice were observed regularly. Tumor-bearing mice (treatment, control) were sacrificed at Day 26 or if they became moribund before the tumor volume reached 2000 mm3. […] The differences in tumor inhibition by the combination treatment compared to that of each component is shown graphically (FIG. 5) and was highly significant (p=0.0002, anti-PD-1 and R848 combined versus R848 alone; p=0.0063 anti-PD-1 and R848 combined versus anti-PD-1 alone).

Structure (SMILES): CCOCc1nc2c(N)nc3ccccc3c2n1CC(C)(C)O [R848, 4-amino-2-(ethoxymethyl)-a,a-di-methyl-1H-imidazo[4,5-c]quinoline-1-ethanol]
- inhibition in tumor growth (C26 tumor): Limited inhibition
- inhibition in tumor growth [1]: Limited inhibition
